Laboratory results: patent publication US20250382298A1, “NITROGEN-CONTAINING COMPOUND AND USE THEREOF” (SUZHOU GENHOUSE BIO CO., LTD., priority 2022, published 2025)

Tests used:
HCT-116 cells [1] = test: Mitotic index analysis, pH3 expression in HCT-116 cells; type: cell-based; settings: Homo sapiens, 24 h treatment
Protocol: (§1) HCT-116 and HT-29 cells at the logarithmic growth phase were taken, digested with a cell lysis buffer (trypsin), centrifuged, counted, and seeded into a 96-well plate at an appropriate cell density (20000 cells/well), with 100 μL per well. The surrounding wells were filled with an appropriate amount of PBS to prevent water evaporation. The next day, the cells were treated with the compounds at different concentrations (with a starting concentration of 10 μM, 3-fold diluted to obtain 9 concentration gradients). After 24 h, the medium was aspirated, and the cells were washed twice with 100 μL of PBS. The cells were then fixed with 4% paraformaldehyde and incubated at room temperature for 15 min. The fixative solution was discarded, and the cells were washed with PBS. Then, 150 μL of specialized blocking solution (containing 1% Triton-100) was added to each well for blocking at room temperature for 2 h, and the plate was washed with PBS to remove excess blocking solution. Anti-phistone H3 (pH3) was diluted at a ratio of 1:1000 with a blocking solution containing 0.033% Triton-100, and a blank control group was set up. Then, incubation was performed at 4° C. overnight. The next day, the plate was washed twice with 1×PBST. Anti-rabbit-IgG (H+L) (CST) and DRAQ5 (Thermofisher) were each diluted at an appropriate ratio with a blocking solution containing 0.033% Triton-100 (secondary antibody: 1:2000; DRAQ5: 1:10000). Then, incubation was performed at room temperature for 2 h. The plate was washed twice with 1×PBST and once with PBS. Fluorescence signals at 700 nm and 800 nm were detected using a Li—COR Odyssey two-color near-infrared laser imager. Calculation was performed as follows: pH3 expression (%)=(Cmpd dose/DMSO control)×100. Cmpd dose is the value of the drug treatment group, and DMSO control is the value of the DMSO control group. The EC50 values were determined by fitting using the GraphPad Prism 7.0 software.

HCT-116 cells [2] = test: Detection of cell proliferation activity by CCK8 method (HCT-116); type: cell-based; settings: Homo sapiens, CCK8, 96 h
Excerpt: (§2) This assay can be used to examine the potency of compounds in inhibiting the proliferation of tumor cells (OVCAR3, HT-29, BT-549, HCT-116). A lower IC50 value indicates high potency of the compound as a KIF18A inhibitor in the following assay setup,
(§3) McCoy's 5A medium purchased from Sangon Biotech; CCK8 kit purchased from Beyotime; OVCAR3, HT-29, HCT-116, and BT-549 cells purchased from Shanghai Fuheng Biotechnology Co., Ltd.; multimode microplate reader (Thermo).
(§4) Cells at the logarithmic growth phase were taken, digested with a cell lysis buffer (trypsin), centrifuged, counted, and seeded into a 96-well plate at an appropriate cell density (BT549: 1500 cells/well in 1640 medium. HT-29 and HCT-116: 2000 cells/well in McCoy's 5A medium), with 180 μL per well, for a total of 60 wells. The surrounding wells were filled with an equal amount of PBS to prevent water evaporation from the edge wells. The next day after cell plating, the test compounds at different concentration gradients (with an initial final concentration of 10 μM, diluted in a 1:5 gradient to obtain 9 concentration gradients) were added to the wells. Three replicate wells were set up for each concentration point, and a corresponding DMSO negative control group was also set up. Detection: After 96 h of drug treatment, the test cell culture plate was removed from the incubator. All the liquid in the 96-well plate was aspirated, and 100 μL of medium containing 10% CCK8 solution was added to each well. The plate was then incubated at 37° C. for 2 h (the OD450 of the DMSO group reached 1.5 or more), and the absorbance at 450 nm was measured using a microplate reader
(§5) After the background value was subtracted from the measurement for each well, the inhibition rate was calculated. Inhibition Rate (%)=(1−Sample/Vehicle)×100. Sample is the luminescence value of the drug treatment group, and Vehicle is the luminescence value of the DMSO control group. A sigmoidal dose-survival rate curve was plotted using a non-linear regression model in the GraphPad Prism 7.0 software, and the IC50 values were calculated.

HT-29 cells [3] = test: Detection of cell proliferation activity by CCK8 method (HT-29); type: cell-based, human; settings: Homo sapiens, CCK8, 96 h
Excerpt: as §2, §3, §4, §5

OVCAR3 cells = test: Detection of cell proliferation activity by CCK8 method (OVCAR3); type: cell-based; settings: Homo sapiens, OVCAR-3, CCK8, 96 h
Excerpt: as §2, §3, §4, §5

HT-29 cells [4] = test: Mitotic index analysis, pH3 expression in HT-29 cells; type: cell-based, human; settings: Homo sapiens, 24 h treatment
Protocol: as §1

BT-549 cells = test: Detection of cell proliferation activity by CCK8 method (BT-549); type: cell-based; settings: Homo sapiens, CCK8, 96 h
Excerpt: as §2, §3, §4, §5

Row | Structure (SMILES) | EC50 (HCT-116 cells [1]) [nM] | IC50 (HCT-116 cells [2]) [nM] | IC50 (HT-29 cells [3]) [nM] | IC50 (OVCAR3 cells) [nM] | EC50 (HT-29 cells [4]) [nM] | IC50 (BT-549 cells) [nM]
1 | CC1(C)C2CN(c3cc(NS(=O)(=O)CCO)ccc3C(=O)Nc3cn4ccnc4c(N4CCC(F)(F)CC4)n3)CC21 (stereo not drawn) [Compound 20] | > 10000 | > 10000 | 518 | 117 | 434 | 736
2 | O=C(Nc1cn2c(C(F)(F)F)cnc2c(N2CCC(F)(F)CC2)n1)c1ccc(NS(=O)(=O)CCO)cc1N1CCC2(CC1)CC2 [Compound 35] | > 10000 | > 10000 | – | 1850 | – | –
3 | O=C(Nc1cn2cc(C(F)(F)F)nc2c(N2CCC(F)(F)CC2)n1)c1ccc(NS(=O)(=O)CCO)cc1N1CCC2(CC1)CC2 [Compound 36] | > 10000 | > 10000 | 520 | 283 | – | 1600
4 | O=C(Nc1cc2nccnc2c(N2CCC(F)(F)CC2)n1)c1ccc(NS(=O)(=O)CCO)cc1N1CCC2(CC1)CC2 [Compound 39] | > 10000 | > 10000 | 28.1 | 10.1 | – | 26.6
5 | Cc1cnc2c(N3CCC(F)(F)CC3)nc(NC(=O)c3ccc(NS(=O)(=O)CCO)cc3N3CCC4(CC3)CC4)cn12 [Compound 42] | > 10000 | > 10000 | 229 | 83.2 | 255 | 304
6 | O=S(=O)(CCO)Nc1cc(N2CCC3(CC2)CC3)c2c(Nc3cn4ccnc4c(N4CCC(F)(F)CC4)n3)ncnc2c1 [Compound 43] | > 10000 | > 10000 | 94.6 | 23.4 | 30 | 65.2
7 | Cc1cc(NC(=O)c2ccc(NS(=O)(=O)CCO)cc2N2Cc3ccccc3C2)nc(N2CCC(F)(F)CC2)n1 [Compound 44] | > 10000 | > 10000 | 1640 | 733 | – | 1900
8 | CS(=O)(=O)Nc1ccc(C(=O)Nc2cc3ccsc3c(N3CCC(F)(F)CC3)n2)c(N2CCC3(CC2)CC3)c1 [Compound 45] | > 10000 | > 10000 | 94 | 54.3 | 80.8 | 170
9 | CS(=O)(=O)Nc1ccc(C(=O)Nc2cn3c(F)cnc3c(N3CCC(F)(F)CC3)n2)c(N2CCC3(CC2)CC3)c1 [Compound 46] | > 10000 | > 10000 | 55.6 | 34.8 | 53 | 75.8
10 | Cn1ncc2cc(NC(=O)c3ccc(NS(C)(=O)=O)cc3N3CCC4(CC3)CC4)nc(N3CCC(F)(F)CC3)c21 [Compound 48] | > 10000 | > 10000 | 17.1 | 12.2 | 12.2 | 26.3
11 | O=C(Nc1cc2ccsc2c(N2CCC(F)(F)CC2)n1)c1ccc(NS(=O)(=O)CCO)cc1N1CC2CCC(C2)C1 [Compound 50] | > 10000 | > 10000 | 55.5 | 51.9 | 31.5 | 175
12 | O=C(Nc1cn2ncnc2c(N2CCC(F)(F)CC2)n1)c1ccc(NS(=O)(=O)CCO)cc1N1CC2CCC(C2)C1 [Compound 54] | > 10000 | > 10000 | 26.7 | 11.7 | 10.8 | 54.7
13 | CS(=O)(=O)Nc1ccc(C(=O)Nc2cn3cncc3c(N3CCC(F)(F)CC3)n2)c(N2CCC3(CC2)CC3)c1 [Compound 58] | > 10000 | > 10000 | 97.1 | 37.9 | 119 | 90.4
14 | O=C(Nc1cn2cncc2c(N2CCC(F)(F)CC2)n1)c1ccc(NS(=O)(=O)CCO)cc1N1CC2CCC(C2)C1 [Compound 59] | > 10000 | > 10000 | 81.6 | 27.5 | 49.1 | 83

Further lines, results first:

Row | EC50 (HCT-116 cells [1]) [nM] | IC50 (HCT-116 cells [2]) [nM] | IC50 (HT-29 cells [3]) [nM] | IC50 (OVCAR3 cells) [nM] | EC50 (HT-29 cells [4]) [nM] | IC50 (BT-549 cells) [nM] | Structure (SMILES)
15 | > 10000 | > 10000 | 144 | 63.2 | 124 | 240 | CS(=O)(=O)Nc1ccc(C(=O)Nc2cn3cncc3c(N3CCC(F)(F)CC3)n2)c(N2CC3CCC(C3)C2)c1 [Compound 60]
16 | > 10000 | > 10000 | 59.6 | 23.2 | 52.6 | 30.9 | CS(=O)(=O)Nc1ccc(C(=O)Nc2cn3cnnc3c(N3CCC(F)(F)CC3)n2)c(N2CCC3(CC2)CC3)c1 [Compound 61]
17 | > 10000 | > 10000 | 15.1 | 6 | 7.7 | 23.1 | O=C(Nc1cc2cc[nH]c2c(N2CCC(F)(F)CC2)n1)c1ccc(NS(=O)(=O)CCO)cc1N1CC2CCC(C2)C1 [Compound 62]
18 | > 10000 | > 10000 | 15.6 | 10.1 | 10.3 | 33.7 | CS(=O)(=O)Nc1ccc(C(=O)Nc2cc3cc[nH]c3c(N3CCC(F)(F)CC3)n2)c(N2CC3CCC(C3)C2)c1 [Compound 63]
19 | > 10000 | > 10000 | 55.2 | 10.2 | 26.8 | 42.4 | O=C(Nc1cn2cnnc2c(N2CCC(F)(F)CC2)n1)c1ccc(NS(=O)(=O)CCO)cc1N1CC2CCC(C2)C1 [Compound 64]
20 | > 10000 | > 10000 | 71.5 | 18.6 | 34.5 | 90.1 | CS(=O)(=O)Nc1ccc(C(=O)Nc2cc3nn[nH]c3c(N3CCC(F)(F)CC3)n2)c(N2CC3CCC(C3)C2)c1 [Compound 66]
21 | > 10000 | > 10000 | 88.1 | 13.9 | 36.1 | 61.8 | O=C(Nc1cc2nn[nH]c2c(N2CCC(F)(F)CC2)n1)c1ccc(NS(=O)(=O)CCO)cc1N1CC2CCC(C2)C1 [Compound 67]
22 | > 10000 | > 10000 | 157 | 43.4 | 90.1 | 90.9 | CS(=O)(=O)Nc1ccc(C(=O)Nc2cc3nn[nH]c3c(N3CCC(F)(F)CC3)n2)c(N2CCC3(CC2)CC3)c1 [Compound 68]
23 | > 10000 | > 10000 | 17.4 | 5 | 7.8 | 39.7 | O=C(Nc1cc2cn[nH]c2c(N2CCC(F)(F)CC2)n1)c1ccc(NS(=O)(=O)CCO)cc1N1CC2CCC(C2)C1 [Compound 71]
24 | – | – | 82.4 | 47.9 | – | 156 | CS(=O)(=O)c1ccc(C(=O)Nc2cn3ccnc3c(N3CCC(F)(F)CC3)n2)c(N2CCC3(CC2)CC3)c1 [Compound 74]
